Measurements as given in article PMC4184574, “Enantioselectivity in the cytochrome P450-dependent conversion of tegafur to 5-fluorouracil in human liver microsomes” (Pharmacology Research & Perspectives, 2013).

Target: T1, CYP2A6 (Homo sapiens, UniProt P11509)
T1 sequence (P11509 1-494): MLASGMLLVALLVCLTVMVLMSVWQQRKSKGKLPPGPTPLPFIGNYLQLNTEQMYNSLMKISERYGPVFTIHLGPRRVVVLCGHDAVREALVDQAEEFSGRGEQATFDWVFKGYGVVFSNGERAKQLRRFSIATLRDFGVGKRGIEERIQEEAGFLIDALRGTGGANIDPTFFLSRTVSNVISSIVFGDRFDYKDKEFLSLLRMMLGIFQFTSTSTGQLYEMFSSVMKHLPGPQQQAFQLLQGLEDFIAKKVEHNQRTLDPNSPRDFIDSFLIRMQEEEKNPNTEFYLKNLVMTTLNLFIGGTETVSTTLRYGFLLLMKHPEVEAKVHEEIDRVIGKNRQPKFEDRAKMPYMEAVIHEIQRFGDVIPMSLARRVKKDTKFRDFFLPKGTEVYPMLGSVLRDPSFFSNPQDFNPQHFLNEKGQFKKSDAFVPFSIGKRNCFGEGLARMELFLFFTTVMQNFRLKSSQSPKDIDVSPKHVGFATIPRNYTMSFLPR
Assay: 5-FU formation from FT enantiomers by cDNA-expressed CYP2A6 (kinetics, velocity, RAF contribution)
Settings: for CYP contribution: CYP2A6, RAF method, 30 μmol/L
Source text: Human hepatic 9000g supernatant (S9) and cytosolic fraction were purchased from XenoTech, LLC. (pooled preparations from 20 donors; Kansas City, KS). Human hepatic microsomes from five individuals (HG32, HH94, HH81, HH74, and HH31), a pooled preparation from 150 donors, and microsomes prepared from insect cell lines expressing CYP1A2, 2A6, 2B6, 2C8, 2C9, 2C19, 2D6, 2E1, and 3A4 were purchased from BD Gentest. Insect microsomes expressing only NADPH-P450 oxidoreductase and cytochrome b5 were also used as control. These enzymes were stored at −80°C until use.
Metabolic reaction by S9 and cytosol (each 2 mg protein/mL) was carried out in 100 mmol/L phosphate (pH 7.4) because TPase requires phosphate ions for catalyzing the reaction. In some cases, insect microsomes expressing recombinant CYP isoforms (20 pmol/mL) were added to the incubation mixtures in either 50, 100 mmol/L phosphate (pH 7.4) or 100 mmol/L Tris (pH 7.4), depending on supplier's recommendation. Microsomal protein concentrations of all cDNA-expressed CYPs were adjusted to 0.5 mg protein/mL by adding control microsomes expressing NADPH-P450 oxidoreductase and cytochrome b5. The reaction for the assay of FT metabolism was initiated by adding the substrate, following preincubation for 5 min at 37°C. After incubation at 37°C, the reaction was stopped by adding three volumes of ice-cold acetonitrile. The incubation times of microsomes, cytosol, and S9 were 15, 15, and 30 min, respectively. After centrifugation, the supernatant was collected and stored at −80°C until the determination of 5-FU. Because a small portion of FT is nonenzymatically converted to 5-FU, the content of 5-FU spontaneously formed was subtracted from total yield obtained after incubation to correct the activity. The spontaneous degradation of FT to 5-FU was evaluated using enzymes inactivated by heating them at 100°C for 5 min.
Concentration of 5-FU was determined using a LC/MS/MS system. The analytical system consisted of a HP1100 liquid chromatograph (Agilent Technologies, CA) coupled with an API4000 triple-quadrupole mass spectrometer (Applied Biosystems, CA) equipped with Turbo V source and ESI interface. Sample separation was performed using an Unison UK-Amino column (2.0 mm i.d. × 100 mm, 3 μm; Imtakt, Kyoto, Japan) at a flow rate of 0.2 mL/min at 40°C. The mobile phase consisted of 10 mmol/L ammonium acetate/acetonitrile 10:90 (v/v). […] For quantification of 5-FU, the calibration curves were linear over the range 2–1000 ng/mL.
Kinetic studies were performed using microsomes from five human livers (HG32, HH94, HH81, HH74, and HH31), cDNA-expressed CYP isoforms, or pooled human hepatic cytosol. In determining kinetic parameters, FT concentration ranged from 0.03 to 10 mmol/L. All reactions were performed in a linear range of 5-FU formation with respect to protein or CYP concentrations and incubation time.
Intrinsic clearance (CLint) was calculated as a ratio of V/S where V and S were the metabolite formation rate and the concentration of a probe substrate for CYP isoform, respectively, when the substrate concentration was well below the Km value. The RAF for each CYP isoform was calculated according to equation (3) (Venkatakrishnan et al. [2000]). [drawing 3] (3) n = 1A2, 2A6, 2C19, or 2E1.
The contribution of CYPn to the metabolism of R- and S-FT at their concentration of 30 μmol/L was subsequently calculated using equation (4). [drawing 4] (4) VCYPn = 5-FU formation rate in cDNA-expressed CYPn.

| SMILES | CYP contribution [%] | CLint (cDNA-expressed CYP2A6) [nL min^−1 pmol^−1 CYP] | Vmax (cDNA-expressed CYP2A6) [pmol min^−1 pmol^−1 CYP] | Km (cDNA-expressed CYP2A6) [µM] |
| --- | --- | --- | --- | --- |
| O=c1[nH]c(=O)n([C@@H]2CCCO2)cc1F [S-FT] | 84.8 | 4.9 | 5.6 ± 0.3 | – |
| O=c1[nH]c(=O)n([C@H]2CCCO2)cc1F [R-FT] | 87.6 | 26 | 4.5 ± 0.1 | 170 ± 10 |
